From patent US20080187508A1, “Treatment of Golmerular Basement Membrane Disease Involving Matrix Metalloproteinase-12” (BOYS TOWN NATIONAL RESEARCH HOSPITAL, priority 2004, published 2008)
Entries after “also recorded” stand apart in the source; their conditions may differ. Structures can show the parent of a compound that is named as a salt. Where two headings read alike, the source gives them in different places.

How the values were obtained:
MMP-3 = MMP-3 (Homo sapiens, UniProt P08254); settings: hydrochloride monohydrate; cited from earlier work
Sequence of MMP-3 (P08254 100-477, species assumed): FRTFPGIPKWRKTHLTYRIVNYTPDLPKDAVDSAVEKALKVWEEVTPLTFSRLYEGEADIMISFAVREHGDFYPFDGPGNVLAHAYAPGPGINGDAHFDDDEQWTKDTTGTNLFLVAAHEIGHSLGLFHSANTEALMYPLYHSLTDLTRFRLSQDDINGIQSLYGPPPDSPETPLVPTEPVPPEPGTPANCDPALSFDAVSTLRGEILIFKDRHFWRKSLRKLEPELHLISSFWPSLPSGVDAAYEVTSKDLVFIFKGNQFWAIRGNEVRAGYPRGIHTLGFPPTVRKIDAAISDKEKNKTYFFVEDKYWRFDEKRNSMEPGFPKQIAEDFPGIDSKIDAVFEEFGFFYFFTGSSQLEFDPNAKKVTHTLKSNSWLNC

wide range of MMPs = settings: in vitro; cited from earlier work
MMP-14 = MMP-14 (Homo sapiens, UniProt P50281); settings: hydrochloride monohydrate; cited from earlier work
Alport mice = assay: transmission electron microscopy of glomerular basement membrane of treated Alport mice; assay type: in vivo, mouse; settings: Alport mice treated with MMP inhibitor from 4 to 7 weeks of age, electron microscopy
Procedure: The Alport mouse model has been described (Cosgrove et al. (1996) Genes Dev. 10, 2981-2992). The control mice used were normal for both collagen α3(IV) alleles, and are a product of double heterozygote crosses for the Alport mutation. The use of animals in this study was performed in accordance with an approved institutional IACUC protocol. Extreme care was taken to minimize pain and discomfort suffered by the mice. MMP inhibitors were administered between 4 and 7 weeks of age. All drugs were freshly prepared prior to administration. BAY 129566 was emulsified in suspension with 0.5% carboxymethyl cellulose and 4 mg given once a day by oral gavage. MMI-270 was solubilized in 0.9% saline and administered by I.P. injection (50 μg/g body weight) once a day. Transmission electron microscopy was performed as previously described (Cosgrove et al., 1996, Genes Dev. 10, 2981-2992). Ultrastructural localization studies of type IV collagen were performed essentially as previously described (Bhattacharya et al., 2002). Kidneys from 7-week-old control and Alport mice were fixed by heart perfusion with 2% paraformaldehyde in PBS, and post-fixed in this same solution overnight. Ultrathin (70 nm) sections were reacted for 4 hours at room temperature with goat anti-collagen IV antibodies (Southern Biotechnology, Birmingham, Ala.). After six 10 minute washes in PBS, specimen were reacted for 2 hours at room temperature with 10 nanometers (nm) gold-conjugated anti-rabbit antibodies (Vector Laboratories, Burlingame, Calif.). Grids were washed as before, air-dried, counterstained with uranyl acetate, and examined using transmission electron microscopy. Propagermanium (3-oxygemylpropinic acid polymer, Sanwa Kagaku Kenkyusho Co., Nagoya, Japan) was administered orally (10 milligrams per kilogram (mg/kg) in 1% gelatin) by gavage once daily starting at 5 weeks of age, and kidneys harvested at 7 weeks of age. Three animals per group, Alport mice and control litter mates, gavaged with drug or vehicle only, were analyzed. […] Proteolytic degradation of the GBM in Alport syndrome might underlie the progressive irregular GBM damage and podocyte foot process effacement. Type IV collagen from Alport kidneys is more susceptible to proteolytic degradation in vitro than type IV collagen from healthy kidneys (Kalluri et al. (1997) J. Clin. Invest. 99, 2470-2478, presumably owing to the reduced number of interchain disulfide crosslinks (Gunwar et al. (1998) J. Biol. Chem. 273, 8767-8775).

MMP-2 = target: T1, MMP-2 (Homo sapiens, UniProt P08253); settings: hydrochloride monohydrate; cited from earlier work
T1 sequence (P08253 110-660): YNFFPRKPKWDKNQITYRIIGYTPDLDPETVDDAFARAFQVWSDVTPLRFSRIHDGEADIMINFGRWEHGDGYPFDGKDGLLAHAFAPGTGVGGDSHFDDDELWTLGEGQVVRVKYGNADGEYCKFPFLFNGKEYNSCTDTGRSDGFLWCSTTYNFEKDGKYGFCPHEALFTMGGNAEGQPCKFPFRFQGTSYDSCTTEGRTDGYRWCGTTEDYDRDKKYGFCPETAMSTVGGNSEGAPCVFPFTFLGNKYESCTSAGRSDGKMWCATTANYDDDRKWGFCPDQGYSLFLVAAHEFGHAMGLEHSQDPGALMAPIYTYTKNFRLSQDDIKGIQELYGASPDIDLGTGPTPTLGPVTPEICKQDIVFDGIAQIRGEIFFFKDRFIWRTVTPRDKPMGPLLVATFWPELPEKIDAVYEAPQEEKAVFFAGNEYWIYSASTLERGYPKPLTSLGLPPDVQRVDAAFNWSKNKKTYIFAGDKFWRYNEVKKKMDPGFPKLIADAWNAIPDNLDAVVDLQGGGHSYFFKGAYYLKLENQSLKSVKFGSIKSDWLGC

MMP-12 = MMP-12 (Homo sapiens, UniProt P39900); settings: cited from earlier work
Sequence of MMP-12 (P39900 106-470, species assumed): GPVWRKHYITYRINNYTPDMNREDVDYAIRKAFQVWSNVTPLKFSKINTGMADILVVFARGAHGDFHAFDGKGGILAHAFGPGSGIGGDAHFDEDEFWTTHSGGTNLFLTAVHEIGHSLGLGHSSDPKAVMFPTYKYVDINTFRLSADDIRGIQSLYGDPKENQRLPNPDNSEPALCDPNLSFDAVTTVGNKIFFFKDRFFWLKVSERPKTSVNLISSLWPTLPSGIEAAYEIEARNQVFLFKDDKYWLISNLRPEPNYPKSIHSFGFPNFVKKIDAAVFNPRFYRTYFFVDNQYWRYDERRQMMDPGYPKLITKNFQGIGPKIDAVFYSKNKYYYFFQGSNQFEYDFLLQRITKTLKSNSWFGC

MMP-9 = MMP-9 (Homo sapiens, UniProt P14780); settings: hydrochloride monohydrate; cited from earlier work
Sequence of MMP-9 (P14780 94-707, species assumed): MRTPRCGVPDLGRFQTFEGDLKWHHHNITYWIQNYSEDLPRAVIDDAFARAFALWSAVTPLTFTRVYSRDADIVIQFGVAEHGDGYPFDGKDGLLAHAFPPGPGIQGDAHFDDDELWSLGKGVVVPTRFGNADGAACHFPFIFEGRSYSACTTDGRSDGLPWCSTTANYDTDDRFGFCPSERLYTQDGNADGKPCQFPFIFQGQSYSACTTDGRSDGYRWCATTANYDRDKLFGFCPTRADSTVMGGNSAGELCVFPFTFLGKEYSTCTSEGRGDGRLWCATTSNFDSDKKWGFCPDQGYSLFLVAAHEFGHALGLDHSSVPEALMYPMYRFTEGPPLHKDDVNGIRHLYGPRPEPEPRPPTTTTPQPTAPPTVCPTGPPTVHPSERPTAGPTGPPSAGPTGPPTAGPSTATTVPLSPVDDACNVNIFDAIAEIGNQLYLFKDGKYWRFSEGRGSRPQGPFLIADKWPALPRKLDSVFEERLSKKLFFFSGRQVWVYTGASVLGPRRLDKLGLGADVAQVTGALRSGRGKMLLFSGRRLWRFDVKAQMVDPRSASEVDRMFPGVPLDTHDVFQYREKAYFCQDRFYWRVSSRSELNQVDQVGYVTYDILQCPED

[1] = listed as NMI 270, hydrochloride monohydrate

Question: With `COc1ccc(S(=O)(=O)N(Cc2cccnc2)[C@@H](C(=O)NO)C(C)C)cc1` [MMI 270, N-hydroxy-2(R)-[(4-methoxysulfonyl)(3-picolyl)amino]-3-methylbutaneamide hydrochloride monohydrate] as the compound, how does the “MMP inhibitory effect, MMP-3” value (MMP-3) read?
Answer: The value was “inhibits”.

Question: And the “concentrations inhibiting activity of a wide range of MMPs” value (wide range of MMPs)?
Answer: Its value is “nM concentrations”.

Question: What about the “MMP inhibitory effect, MMP-14” value (MMP-14) of the same compound?
Answer: Its value is “inhibits”.

Question: What about the “glomerular basement membrane architecture” value (Alport mice; hydrochloride monohydrate) of the same compound?
Answer: Its value is “near complete restoration of normal glomerular basement membrane architecture; also recorded: prevents or reverses GBM damage”.

Question: And the “glomerular basement membrane architecture” value (Alport mice; listed as MMI-270, hydrochloride monohydrate)?
Answer: The value was “largely restored GBM ultrastructure and function; also recorded: markedly improved glomerular basement membrane architecture”.

Question: What about the “glomerular basement membrane architecture” value (Alport mice; [1]) of the same compound?
Answer: Its value is “markedly improved GBM ultrastructure”.

Question: And the “MMP inhibitory effect, MMP-2” value (MMP-2)?
Answer: Its value is “inhibits”.

Question: What about the “MMP inhibitory effect, MMP-12” value (MMP-12; hydrochloride monohydrate) of the same compound?
Answer: The value was “inhibits”.

Question: What about the “MMP inhibitory effect, MMP-12” value (MMP-12; [1]) of the same compound?
Answer: Its value is “inhibits”.

Question: What about the “MMP inhibitory effect, MMP-9” value (MMP-9) of the same compound?
Answer: The value was “inhibits”.
